# Test results from patent US20160158200A1, “Combinations of Hepatitis C Virus Inhibitors” (priority 2013, published 2016).
# Test system: HCV genotype-1a variant with glutamine 30 changed to glutamate in the NS5A protein
# Type: cell-based
# Settings: test compound titrated with BMS-790052 fixed at 200 nM; genotype 1a Q30E replicon
# In short: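 Synergy was assessed by combining several fixed amounts of an NS5A-targeting compound with a titration of the second compound of interest.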
row,SMILES,Fold-Synergistic 1a (Q30E) [fold]
1,CC(C)[C@H](NC(=O)C(C)(C)C)c1nc(-c2ccc(-c3ccc(-c4c[nH]c([C@@H](NC(=O)C(C)(C)C)C(C)C)n4)cc3F)cc2)c[nH]1.O=C(O)C(F)(F)F [Compound N-100],>100
2,CCOC(C)(C)C(=O)C(=O)N[C@H](c1ncc(-c2ccc(-c3ccc(-c4cnc([C@@H](NC(=O)C(=O)C(C)(C)OCC)C(C)C)[nH]4)cc3)cc2)[nH]1)C(C)C [Compound P-117],>100
3,CC(=O)N1C[C@H](F)C[C@H]1C(=O)N[C@H](c1nc(-c2ccc(-c3ccc(-c4c[nH]c([C@@H](NC(=O)[C@@H]5C[C@@H](F)CN5C(C)=O)C(C)(C)C)n4)cc3)cc2)c[nH]1)C(C)(C)C [Compound W-102],>10
4,CC(CO)(CO)C(=O)N[C@H](c1nc(-c2ccc(-c3ccc(-c4c[nH]c([C@@H](NC(=O)C(C)(CO)CO)C(C)(C)C)n4)cc3)cc2)c[nH]1)C(C)(C)C [Compound W-125],>100
5,CC(C)(C)OC(=O)NC(C)(C)C(=O)N[C@H](c1nc(-c2ccc(-c3ccc(-c4c[nH]c([C@@H](NC(=O)C(C)(C)NC(=O)OC(C)(C)C)C(C)(C)C)n4)cc3)cc2)c[nH]1)C(C)(C)C [Compound L-3],>100
6,O=C(c1nccc2ccccc12)N1CCC[C@H]1c1ncc(-c2ccc(-c3ccc(-c4cnc([C@@H]5CCCN5C(=O)c5nccc6ccccc56)[nH]4)cc3)cc2)[nH]1 [Compound S-202],>100
7,"CC(C)[C@H](NC(=O)C12CCC(C1)C(C)(C)C2O)c1nc(-c2ccc(-c3ccc(-c4c[nH]c([C@@H](NC(=O)C56CCC(C5)C(C)(C)C6O)C(C)C)n4)cc3)cc2)c[nH]1 (single isomer, unassigned) [Compound Y-113]",>100
8,CC1(C)CC(C(=O)NC(c2nc(-c3ccc(-c4ccc(-c5c[nH]c(C(NC(=O)C6CC(C)(C)C6)C(C)(C)C)n5)cc4)cc3)c[nH]2)C(C)(C)C)C1 [Compound L-53],>100
9,CCCCC(=O)N[C@H](c1ncc(-c2ccc(-c3ccc(-c4cnc([C@@H](NC(=O)CCCC)C(C)C)[nH]4)cc3)cc2)[nH]1)C(C)C [Compound S-45],>100
10,"CC(C)(C)[C@H](NC(=O)[C@@]1(C)CCC(F)(F)CO1)c1ncc(-c2ccc(C34CCC(c5cnc([C@@H](NC(=O)[C@@]6(C)CCC(F)(F)CO6)C(C)(C)C)[nH]5)(CC3)CC4)cc2)[nH]1 [Compound B-186, (R)—N—((S)-1-(5-(4-(4-(2-((S)-1-((R)-5,5-difluoro-2-methyltetrahydro-2H-pyran-2-carboxamido)-2,2-dimethylpropyl)-1H-imidazol-5-yl)bicyclo[2.2.2]octan-1-yl)phenyl)-1H-imidazol-2-yl)-2,2-dimethylpropyl)-5,5-difluoro-2-methyltetrahydro-2H-pyran-2-carboxamide]",>100
11,CC(C)[C@H](NC(=O)c1cc(C(C)(C)C)nn1C)c1ncc(-c2ccc(-c3ccc(-c4cnc([C@@H](NC(=O)c5cc(C(C)(C)C)nn5C)C(C)C)[nH]4)cc3)cc2)[nH]1 [Compound S-101],>100
12,CC(C)(C)[C@H](NC(=O)C1CCC(F)(F)CC1)c1ncc(-c2ccc(-c3ccc(-c4ccc5nc([C@@H](NC(=O)C6CCC(F)(F)CC6)C(C)(C)C)[nH]c5c4)cc3)cc2)[nH]1 [Compound B56],>100
13,CC(C)[C@H](NC(=O)c1ccccc1Oc1ccccc1)c1ncc(-c2ccc(-c3ccc(-c4cnc([C@@H](NC(=O)c5ccccc5Oc5ccccc5)C(C)C)[nH]4)cc3)cc2)[nH]1 [Compound S-27],>10
14,COC(=O)C1(C(=O)N[C@H](c2nc(-c3ccc(-c4ccc(-c5c[nH]c([C@@H](NC(=O)C6(C(=O)OC)CCCCC6)C(C)(C)C)n5)cc4)cc3)c[nH]2)C(C)(C)C)CCCCC1 [Compound S-273],>100
15,CC(C)[C@H](NC(=O)C1CCC(F)(F)CC1)c1ncc(-c2ccc(-c3ccc(-c4cnc([C@@H](NC(=O)C5CCC(F)(F)CC5)C(C)C)[nH]4)cc3)cc2)[nH]1 [Compound P-79],>100
16,CC(C)[C@H](NC(=O)C(C)(C)C)c1ncc(-c2ccc(-c3ccc(-c4cnc([C@@H](NC(=O)C(C)(C)C)C(C)C)o4)cc3)cc2)o1 [Compound N-2],>100
17,CC(C)(C)C(NC(=O)C1COCCN1CC(F)(F)F)c1nc(-c2ccc(-c3ccc(-c4c[nH]c(C(NC(=O)C5COCCN5CC(F)(F)F)C(C)(C)C)n4)cc3)cc2)c[nH]1 [Compound L-68],>100
18,COC(=O)C12CCC(C(=O)N[C@H](c3nc(-c4ccc(-c5ccc(-c6c[nH]c([C@@H](NC(=O)C78CCC(C(=O)OC)(CC7)CC8)C(C)(C)C)n6)cc5)cc4)c[nH]3)C(C)(C)C)(CC1)CC2 [Compound W-127],>100
19,"CC(C)(C(=O)N[C@H](c1nc(-c2ccc(-c3ccc(-c4c[nH]c([C@@H](NC(=O)C(C)(C)C(O)C5CC(F)(F)C5)C(C)(C)C)n4)cc3)cc2)c[nH]1)C(C)(C)C)C(O)C1CC(F)(F)C1 (single isomer, unassigned) [Compound N-144B]",>100

row,SMILES,Fold-Synergistic 1a (Q30E) [fold]
1,"CC(C)(C)OC(=O)N1CC(F)(F)CC1(C)C(=O)N[C@H](c1nc(-c2ccc(-c3ccc(-c4c[nH]c([C@@H](NC(=O)C5(C)CC(F)(F)CN5C(=O)OC(C)(C)C)C(C)(C)C)n4)cc3)cc2)c[nH]1)C(C)(C)C (single isomer, unassigned) [Compound W-78]",>100
2,CC(C)(C)[C@H](NC(=O)C(C)(C)n1cnc(C(F)(F)F)c1)c1nc(-c2ccc(-c3ccc(-c4c[nH]c([C@@H](NC(=O)C(C)(C)n5cnc(C(F)(F)F)c5)C(C)(C)C)n4)cc3)cc2)c[nH]1 [Compound W-150],>100
3,CC(C)(C)[C@H](NC(=O)OC1CCC(F)(F)CC1)c1nc(-c2ccc(-c3ccc(-c4c[nH]c([C@@H](NC(=O)OC5CCC(F)(F)CC5)C(C)(C)C)n4)cc3)cc2)c[nH]1 [Compound P-138],>100
4,COC(=O)N[C@H](CC(C)C)C(=O)N[C@H](c1ncc(-c2ccc(-c3ccc(-c4cnc([C@@H](NC(=O)[C@@H](CC(C)C)NC(=O)OC)C(C)C)[nH]4)cc3)cc2)[nH]1)C(C)C [Compound P-105],>100
5,CC(C)(C)[C@H](NC(=O)C(C)(C)C1(O)CCC(F)(F)CC1)c1nc(-c2ccc(-c3ccc(-c4c[nH]c([C@@H](NC(=O)C(C)(C)C5(O)CCC(F)(F)CC5)C(C)(C)C)n4)cc3)cc2)c[nH]1 [Compound P-149],>100
6,COC(C)(C)C(=O)N[C@H](c1nc(-c2ccc(-c3ccc(-c4c[nH]c([C@@H](NC(=O)C(C)(C)OC)C(C)(C)C)n4)c(C)c3)cc2)c[nH]1)C(C)(C)C.O=C(O)C(F)(F)F [Compound N-85],>100
7,COC(C)(C)C(=O)N[C@H](c1nc(-c2ccc(-c3ccc(-c4c[nH]c([C@@H](NC(=O)C(C)(C)OC)C(C)C)n4)cc3F)cc2)c[nH]1)C(C)C.O=C(O)C(F)(F)F [Compound N-96],>100
8,CC(C)[C@H](NC(=O)C1(CO)CC(F)(F)C1)c1nc(-c2ccc(-c3ccc(-c4c[nH]c([C@@H](NC(=O)C5(CO)CC(F)(F)C5)C(C)C)n4)cc3)cc2)c[nH]1 [Compound N-154],>100
9,CC(C)[C@H](NC(=O)c1ccccn1)c1ncc(-c2ccc(-c3ccc(-c4cnc([C@@H](NC(=O)c5ccccn5)C(C)C)[nH]4)cc3)cc2)[nH]1 [Compound S-46],>10
10,COCC(NC(=O)C(=O)N1CCC(F)(F)CC1)c1nc(-c2ccc(-c3ccc(-c4c[nH]c(C(COC)NC(=O)C(=O)N5CCC(F)(F)CC5)n4)cc3)cc2)c[nH]1 [Compound L-103],>10
11,CC(C)(C)[C@H](NC(=O)c1ccc(Cl)cn1)c1nc(-c2ccc(-c3ccc(-c4c[nH]c([C@@H](NC(=O)c5ccc(Cl)cn5)C(C)(C)C)n4)cc3)cc2)c[nH]1 [Compound N-53],>100
12,CC(C)(C)OC(=O)N1CC2(CC2)C[C@H]1C(=O)N[C@H](c1nc(-c2ccc(-c3ccc(-c4c[nH]c([C@@H](NC(=O)[C@@H]5CC6(CC6)CN5C(=O)OC(C)(C)C)C(C)(C)C)n4)cc3)cc2)c[nH]1)C(C)(C)C [Compound W-94],>100
13,CC1(C(=O)N[C@H](c2nc(-c3ccc(-c4ccc(-c5c[nH]c([C@@H](NC(=O)C6(C)CC(F)(F)CN6)C(C)(C)C)n5)cc4)cc3)c[nH]2)C(C)(C)C)CC(F)(F)CN1 (mixture of isomers) [Compound W-80],>100
14,Cn1cccc1C(O)C(C)(C)C(=O)N[C@H](c1nc(-c2ccc(-c3ccc(-c4c[nH]c([C@@H](NC(=O)C(C)(C)C(O)c5cccn5C)C(C)(C)C)n4)cc3)cc2)c[nH]1)C(C)(C)C (mixture of isomers) [Compound N-129],>100
15,"CC(C)(C)[C@H](NC(=O)C1(C(O)c2ccccc2)CC1)c1nc(-c2ccc(-c3ccc(-c4c[nH]c([C@@H](NC(=O)C5(C(O)c6ccccc6)CC5)C(C)(C)C)n4)cc3)cc2)c[nH]1 (single isomer, unassigned) [Compound N-126C]",>100
16,Cc1cc(-c2ccc(-c3c[nH]c([C@@H](NC(=O)C(C)(C)C)C(C)(C)C)n3)cc2)ccc1-c1c[nH]c([C@@H](NC(=O)C(C)(C)C)C(C)(C)C)n1.O=C(O)C(F)(F)F [Compound N-86],>100
17,COc1ccc2c(C(=O)N3CCC[C@H]3c3ncc(-c4ccc(-c5ccc(-c6cnc([C@@H]7CCCN7C(=O)c7nc(Cl)cc8cc(OC)ccc78)[nH]6)cc5)cc4)[nH]3)nc(Cl)cc2c1 [Compound S-204],>100
18,CC(C)C(=O)N[C@H](c1ncc(-c2ccc(-c3ccc(-c4cnc([C@@H](NC(=O)C(C)C)C(C)C)[nH]4)cc3)cc2)[nH]1)C(C)C [Compound S-7],>100
19,CC(C)[C@H](NC(=O)c1cncnc1)c1ncc(-c2ccc(-c3ccc(-c4cnc([C@@H](NC(=O)c5cncnc5)C(C)C)[nH]4)cc3)cc2)[nH]1 [Compound S-61],>10
